Read-outs that look alike come from different tables or passages of the source.
Experiments:
RAW264.7 mouse cells = assay: Nitric Oxide Assay (DAF-FM fluorescence, confocal microscopy); assay type: cell-based
Experimental: Drug Preparation. […] The current formulation, L-arginine (COMPOUND SOLUTIONS) and L-citrulline DL-malate 2:1 (COMPOUND SOLUTIONS) were each prepared at 300 mg/ml in DMEM without phenol red (CORNING) and stored at −20° C. until use. Arginine silicate and lipopolysaccharides from E. coli 0111: B4 (LPS; SIGMA ALDRICH) were dissolved in DMSO to 300 mg/ml and 50 μg/ml, respectively, and stored frozen until use. 4,5-Diaminofluorescein Diacetate (DAF-FM) was diluted from 5 mM stocks in DMSO.
Cell Culture. […] All experiments were completed with cultures under 8 passages, and cell densities were maintained between 0.2×10^6 and 0.8×10^6 cells per ml during maintenance.
Cells were triturated with complete growth medium. Density was determined under phase-contrast using 0.2% Trypan blue. Three viable cell counts were performed on the hemocytometer and averaged.
Nitric Oxide Assay. […] DAF-FM diacetate is essentially non-fluorescent until it reacts with nitric oxide to form a fluorescent benzotriazole. DAF-FM diacetate is cell-permeant and passively diffuses across cellular membranes. Once inside cells, it is deacetylated by intracellular esterases to become DAF-FM.
Here, cells (50,000) in 3 ml of complete growth medium were plated onto 35-mm glass bottom dishes (MATTEK) pre-coated with poly-D-lysine. Cells were grown for 24 h and washed twice in HBS. Three (3) ml of serum-free medium was added. Cells were then treated with 1 μM lipopolysaccharide or various concentrations of test agents and grown for an additional 30 min. DAF-FM was added to cells to a final concentration of 2 μM and incubated for an additional 30 min.
For confocal microscopy, medium was removed, and cells were washed once in HBS and replaced with 3 ml Live Cell Imaging solution (INVITROGEN). […] For cell treatments resulting in little or no fluorescence, 4′,6-diamidino-2-phenylindole (DAPI, MOLECULAR PROBES) was added at a final concentration of 300 nM to an additional sample. Images were captured and analyzed as tiff formatted files. […] For determining fluorescence, the entire image was analyzed for each image taken.

[1] = tested on: heme oxygenase 1 in RAW264, 7 cells; conditions: galloyl-derivative compared to non-galloylated parent molecule; cited from earlier work
HUVEC [2] = conditions: cited from earlier work
[3] = tested on: S-G cells (immortalized gum epithelial cells); conditions: cited from earlier work
pancreatic lipase = target: T1, pancreatic lipase (Homo sapiens, UniProt P16233); conditions: Control: Untreated enzyme; cited from earlier work
T1 sequence (P16233 17-465): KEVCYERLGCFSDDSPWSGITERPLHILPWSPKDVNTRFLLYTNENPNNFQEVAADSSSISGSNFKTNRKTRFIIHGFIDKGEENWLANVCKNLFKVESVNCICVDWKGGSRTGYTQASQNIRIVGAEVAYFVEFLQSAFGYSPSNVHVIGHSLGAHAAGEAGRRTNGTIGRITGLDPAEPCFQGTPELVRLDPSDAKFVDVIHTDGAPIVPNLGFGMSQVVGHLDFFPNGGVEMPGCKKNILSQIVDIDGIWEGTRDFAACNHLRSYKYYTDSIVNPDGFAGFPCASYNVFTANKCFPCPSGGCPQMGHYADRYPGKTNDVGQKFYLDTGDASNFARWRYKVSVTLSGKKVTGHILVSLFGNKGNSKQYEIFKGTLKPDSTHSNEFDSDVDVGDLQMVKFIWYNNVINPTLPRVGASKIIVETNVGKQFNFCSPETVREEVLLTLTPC

fatty acid synthase = fatty acid synthase (Homo sapiens, UniProt P49327); conditions: Control: Untreated enzyme; cited from earlier work
NA+/K+ ATPase pump = conditions: Control: Untreated pump; cited from earlier work
HUVEC [4] = conditions: Control: Untreated cells; cited from earlier work
NA/H exchanger = conditions: Control: Untreated exchanger; cited from earlier work
[5] = target: type 1 ryanodine receptor (Homo sapiens, UniProt P21817); conditions: Control: Untreated receptor; cited from earlier work
[6] = tested on: human umbilical vein endothelial cells (HUVEC); conditions: galloyl-derivative compared to non-galloylated parent molecule; cited from earlier work
[7] = Control: C, EC; cited from earlier work
[8] = target: T2, rat liver microsomal 5α-reductase (Rattus norvegicus, UniProt P24008); conditions: cited from earlier work
T2 sequence (P24008 1-259): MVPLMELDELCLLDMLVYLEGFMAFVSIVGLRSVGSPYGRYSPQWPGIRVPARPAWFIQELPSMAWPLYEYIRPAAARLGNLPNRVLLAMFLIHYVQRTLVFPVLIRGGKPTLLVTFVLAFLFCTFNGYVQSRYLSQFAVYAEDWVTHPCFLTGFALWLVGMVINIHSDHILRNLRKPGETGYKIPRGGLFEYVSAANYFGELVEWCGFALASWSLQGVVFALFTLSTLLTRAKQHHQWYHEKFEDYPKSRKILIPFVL

[9] = tested on: fatty acid synthase expression, MCF-7 cells; conditions: Control: Untreated cells; cited from earlier work
HL-60 cells [10] = conditions: Control: Untreated cells; cited from earlier work
HL-60 cells [11] = conditions: Control: Untreated cells; cited from earlier work; remark: listed apart in the source
[12] = tested on: MCF-7 and MDA-MB231 cells; conditions: Control: Untreated cells; cited from earlier work
LNCaP and DU145 cells = conditions: Control: Untreated cells; cited from earlier work
erythrocytes = conditions: Control: Untreated erythrocytes; cited from earlier work
K562 cells = conditions: cited from earlier work

fatty acid synthase, sequence (P49327 whole entry, species assumed): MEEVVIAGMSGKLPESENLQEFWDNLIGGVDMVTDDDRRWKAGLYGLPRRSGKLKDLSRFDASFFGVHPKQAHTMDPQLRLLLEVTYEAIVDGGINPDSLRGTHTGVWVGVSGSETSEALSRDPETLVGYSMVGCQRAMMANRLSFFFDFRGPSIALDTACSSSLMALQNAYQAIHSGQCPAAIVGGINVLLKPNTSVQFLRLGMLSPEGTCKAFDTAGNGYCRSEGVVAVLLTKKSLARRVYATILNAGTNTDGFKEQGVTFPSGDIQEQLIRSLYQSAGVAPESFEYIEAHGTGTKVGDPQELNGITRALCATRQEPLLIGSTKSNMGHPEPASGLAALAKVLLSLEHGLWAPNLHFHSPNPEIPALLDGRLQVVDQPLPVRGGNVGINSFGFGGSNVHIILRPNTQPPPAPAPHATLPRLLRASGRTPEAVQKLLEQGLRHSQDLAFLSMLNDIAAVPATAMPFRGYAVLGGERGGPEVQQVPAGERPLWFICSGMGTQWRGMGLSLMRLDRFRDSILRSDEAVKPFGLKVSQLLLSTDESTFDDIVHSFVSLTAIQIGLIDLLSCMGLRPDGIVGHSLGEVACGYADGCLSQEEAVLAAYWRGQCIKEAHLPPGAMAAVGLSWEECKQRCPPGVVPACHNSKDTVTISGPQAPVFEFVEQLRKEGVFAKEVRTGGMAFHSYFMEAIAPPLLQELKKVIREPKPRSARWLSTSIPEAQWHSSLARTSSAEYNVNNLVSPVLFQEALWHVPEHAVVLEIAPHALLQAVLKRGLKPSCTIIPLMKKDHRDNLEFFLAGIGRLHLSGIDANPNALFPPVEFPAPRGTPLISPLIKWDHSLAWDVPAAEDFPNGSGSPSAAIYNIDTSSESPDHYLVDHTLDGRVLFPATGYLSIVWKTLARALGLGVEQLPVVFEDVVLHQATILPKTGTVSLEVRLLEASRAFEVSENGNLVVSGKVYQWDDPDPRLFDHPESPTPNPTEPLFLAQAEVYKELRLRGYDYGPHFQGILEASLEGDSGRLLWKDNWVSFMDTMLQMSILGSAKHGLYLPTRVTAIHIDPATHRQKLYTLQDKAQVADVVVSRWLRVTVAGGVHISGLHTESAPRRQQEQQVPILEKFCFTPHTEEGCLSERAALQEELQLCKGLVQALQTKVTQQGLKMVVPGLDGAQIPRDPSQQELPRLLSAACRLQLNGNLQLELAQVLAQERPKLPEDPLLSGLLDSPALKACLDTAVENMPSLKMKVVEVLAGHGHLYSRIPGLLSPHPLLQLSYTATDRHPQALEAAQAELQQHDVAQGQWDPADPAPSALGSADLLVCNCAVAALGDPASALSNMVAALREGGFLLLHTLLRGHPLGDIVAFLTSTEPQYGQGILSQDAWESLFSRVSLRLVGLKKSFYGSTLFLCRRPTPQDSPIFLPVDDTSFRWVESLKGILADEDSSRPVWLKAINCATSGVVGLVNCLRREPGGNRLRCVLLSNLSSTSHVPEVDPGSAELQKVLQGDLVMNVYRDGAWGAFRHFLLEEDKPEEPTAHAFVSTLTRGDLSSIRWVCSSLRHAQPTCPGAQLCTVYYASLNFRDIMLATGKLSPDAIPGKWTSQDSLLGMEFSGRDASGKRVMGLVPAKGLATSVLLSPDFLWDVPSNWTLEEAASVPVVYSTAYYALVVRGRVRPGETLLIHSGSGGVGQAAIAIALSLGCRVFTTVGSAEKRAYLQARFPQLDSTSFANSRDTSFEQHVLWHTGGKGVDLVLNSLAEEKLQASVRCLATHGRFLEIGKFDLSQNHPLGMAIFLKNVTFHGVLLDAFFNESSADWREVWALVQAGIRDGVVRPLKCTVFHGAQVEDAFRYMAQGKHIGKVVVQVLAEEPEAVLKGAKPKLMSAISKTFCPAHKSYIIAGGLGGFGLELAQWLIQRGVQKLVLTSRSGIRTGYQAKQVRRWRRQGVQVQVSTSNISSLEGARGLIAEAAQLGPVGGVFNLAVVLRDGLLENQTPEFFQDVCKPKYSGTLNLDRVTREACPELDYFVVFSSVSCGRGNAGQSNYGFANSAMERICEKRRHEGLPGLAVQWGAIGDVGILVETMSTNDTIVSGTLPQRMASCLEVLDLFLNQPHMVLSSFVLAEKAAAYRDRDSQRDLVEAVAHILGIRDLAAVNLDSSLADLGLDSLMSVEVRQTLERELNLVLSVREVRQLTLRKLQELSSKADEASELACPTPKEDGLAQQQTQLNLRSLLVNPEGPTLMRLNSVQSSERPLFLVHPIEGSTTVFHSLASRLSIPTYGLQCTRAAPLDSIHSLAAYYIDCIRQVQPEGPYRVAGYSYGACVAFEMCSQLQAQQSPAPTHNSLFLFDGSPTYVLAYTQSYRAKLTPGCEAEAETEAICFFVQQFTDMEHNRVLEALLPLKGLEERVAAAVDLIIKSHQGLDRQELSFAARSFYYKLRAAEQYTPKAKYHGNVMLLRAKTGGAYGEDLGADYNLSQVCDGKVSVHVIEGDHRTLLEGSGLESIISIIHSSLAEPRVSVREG

## NC(=O)NCCC[C@H](N)C(=O)O.NC(=O)NCCC[C@H](N)C(=O)O.O=C(O)CC(O)C(=O)O (racemic) [L-citrulline-DL-malate 2:1, L-citrulline DL-malate 2:1]
RAW264.7 mouse cells; RAW264.7 cells, 600 μg/ml samples
  mean fluorescence (DAF-FM): noticeably low mean fluorescence

## O=C(Oc1c(-c2ccc(O)c(O)c2)oc2cc(O)cc(O)c2c1=O)c1cc(O)c(O)c(O)c1 [3GQ]
[1]
  Effect: Induction of heme oxygenase 1 in RAW264, 7 cells: ↓↓
HUVEC [2]
  Effect: Cytotoxicity, inhibition of proliferation, migration and tube formation of HUVEC: ↑↑

## O=C(Oc1cc(O)c2c(c1)O[C@H](c1ccc(O)c(O)c1)[C@@H](O)C2=O)c1cc(O)c(O)c(O)c1 [7GT]
[1]
  Effect: Induction of heme oxygenase 1 in RAW264, 7 cells: ↑↑↑
HUVEC [2]
  Effect: Cytotoxicity, inhibition of proliferation, migration and tube formation of HUVEC: ↑↑

## O=C(O[C@H]1Cc2c(O)cc(O)cc2O[C@@H]1c1ccc(O)c(O)c1)c1cc(O)c(O)c(O)c1 [CG]
[3]; Control: Untreated cells
  Effect: Cytotoxicity towards S-G cells (immortalized gum epithelial cells): ↑↑↑
Pancreatic lipase
  Effect: Reduction of pancreatic lipase activity in vitro: ↑↑↑

## Oc1cc(O)c2c(c1)O[C@H](c1ccc(O)c(O)c1)[C@H](O)C2 [EC, epicatechin]
[3]
  Effect: Cytotoxicity towards S-G cells (immortalized gum epithelial cells): ↑

## O=C(O[C@@H]1Cc2c(O)cc(O)cc2O[C@@H]1c1ccc(O)c(O)c1)c1cc(O)c(O)c(O)c1 [ECG, Epicatechin gallate]
[3]; Control: Untreated cells
  Effect: Cytotoxicity towards S-G cells (immortalized gum epithelial cells): ↑↑↑
Fatty acid synthase
  Effect: Inhibition of fatty acid synthase activity: ↑↑↑
Pancreatic lipase
  Effect: Reduction of pancreatic lipase activity in vitro: ↑↑
NA+/K+ ATPase pump
  Effect: Inhibition of NA+/K+ ATPase pump activity: ↑↑
HUVEC [4]
  Effect: Inhibition of VEGF-induced proliferation of HUVEC: ↑↑
NA/H exchanger
  Effect: Inhibition of NA/H exchanger activity: ↑↑
[5]
  Effect: Activiation of type 1 ryanodine receptor: ↑↑↑
[6]
  Effect: Inhibition of VEGF-induced proliferation migration and tube formation of human umbilical vein endothelial cells (HUVEC): ↑^c

## O=C(O[C@@H]1Cc2c(O)cc(O)cc2O[C@@H]1c1cc(O)c(O)c(O)c1)c1cc(O)c(O)c(O)c1 [EGCG, epigallocatechin gallate]
[3]
  Effect: Cytotoxicity towards S-G cells (immortalized gum epithelial cells): ↑↑↑
[7]
  Effect: Trolox-equivalent antioxidant activity: ↑↑
Fatty acid synthase
  Effect: Inhibition of fatty acid synthase activity: ↑↑↑
HUVEC [2]; galloyl-derivative compared to non-galloylated parent molecule
  Effect: Cytotoxicity, inhibition of proliferation, migration and tube formation of HUVEC: ↑↑^c
Pancreatic lipase
  Effect: Reduction of pancreatic lipase activity in vitro: ↑↑
[8]; Control: Untreated enzyme
  Effect: Inhibition of rat liver microsomal 5α-reductase: ↑
[9]
  Effect: Suppression of fatty acid synthase expression n MCF-7 cells: ↑↑↑
HL-60 cells [10]
  Effect: Reduction of cell viability in HL-60 cells: ↑↑
NA+/K+ ATPase pump
  Effect: Inhibition of NA+/K+ ATPase pump activity: ↑↑
HUVEC [4]
  Effect: Inhibition of VEGF-induced proliferation of HUVEC: ↑↑
NA/H exchanger
  Effect: Inhibition of NA/H exchanger activity: ↑
[5]
  Effect: Activiation of type 1 ryanodine receptor: ↑↑↑

## Oc1cc(O)c2c(c1)O[C@H](c1cc(O)c(O)c(O)c1)[C@H](O)C2 [EGC]
[3]; Control: Untreated cells
  Effect: Cytotoxicity towards S-G cells (immortalized gum epithelial cells): ↑↑
Fatty acid synthase
  Effect: Inhibition of fatty acid synthase activity: ↑
[9]
  Effect: Suppression of fatty acid synthase expression n MCF-7 cells: •
NA+/K+ ATPase pump
  Effect: Inhibition of NA+/K+ ATPase pump activity: ↑
HUVEC [4]
  Effect: Inhibition of VEGF-induced proliferation of HUVEC: ↑
NA/H exchanger
  Effect: Inhibition of NA/H exchanger activity: ↑↑↑
[5]
  Effect: Activiation of type 1 ryanodine receptor: ↑

## O=C(O)c1cc(O)c(O)c(O)c1 [GA, gallic acid]
Fatty acid synthase
  Effect: Inhibition of fatty acid synthase activity: ↑
HL-60 cells [11]
  Effect: Induction of apoptosis in HL-60 cells: ↑↑

## O=C(O[C@@H]1Cc2c(O)cc(O)cc2O[C@H]1c1cc(O)c(O)c(O)c1)c1cc(O)c(O)c(O)c1 [GCG]
Pancreatic lipase
  Effect: Reduction of pancreatic lipase activity in vitro: ↑↑↑

## N=C(N)NCCC[C@H](N)C(=O)O [L-arginine]
RAW264.7 mouse cells
  mean fluorescence (DAF-FM): noticeably low mean fluorescence

## O=C(OC[C@H]1O[C@@H](OC(=O)c2cc(O)c(O)c(O)c2)[C@H](OC(=O)c2cc(O)c(O)c(O)c2)[C@@H](OC(=O)c2cc(O)c(O)c(O)c2)[C@@H]1OC(=O)c1cc(O)c(O)c(O)c1)c1cc(O)c(O)c(O)c1 [PGG]
[12]
  Effect: Growth inhibition of MCF-7 and MDA-MB231 cells: ↑↑↑
[8]
  Effect: Inhibition of rat liver microsomal 5α-reductase: ↑↑↑
LNCaP and DU145 cells
  Effect: Inhibitory effects on LNCaP and DU145 cells: ↑↑↑
HL-60 cells [10]
  Effect: Reduction of cell viability in HL-60 cells: ↑↑↑
erythrocytes
  Effect: Triggering of suicidal erythrocyte death: ↑↑
K562 cells
  Effect: Cytotoxicity towards K562 cells: ↑

## catechin
Fatty acid synthase
  Effect: Inhibition of fatty acid synthase activity: •
[9]
  Effect: Suppression of fatty acid synthase expression n MCF-7 cells: •

## lipopolysaccharides from E. coli 0111: B4 [LPS]
RAW264.7 mouse cells; RAW264.7 cells, 1 ng/ml incubated for 30 minutes
  DAF-FM fluorescence (nitric oxide levels): bright and consistent DAF-FM fluorescence

Source: patent publication US11766422B2, “Galloylated procyanidins for treating endovascular dysfunction and increasing blood flow” (UNIVERSITY OF SOUTH FLORIDA, priority 2018, dated 2023)
